Target: T1, Stat5a (Homo sapiens, UniProt P42229)
T1 sequence (P42229 1-794): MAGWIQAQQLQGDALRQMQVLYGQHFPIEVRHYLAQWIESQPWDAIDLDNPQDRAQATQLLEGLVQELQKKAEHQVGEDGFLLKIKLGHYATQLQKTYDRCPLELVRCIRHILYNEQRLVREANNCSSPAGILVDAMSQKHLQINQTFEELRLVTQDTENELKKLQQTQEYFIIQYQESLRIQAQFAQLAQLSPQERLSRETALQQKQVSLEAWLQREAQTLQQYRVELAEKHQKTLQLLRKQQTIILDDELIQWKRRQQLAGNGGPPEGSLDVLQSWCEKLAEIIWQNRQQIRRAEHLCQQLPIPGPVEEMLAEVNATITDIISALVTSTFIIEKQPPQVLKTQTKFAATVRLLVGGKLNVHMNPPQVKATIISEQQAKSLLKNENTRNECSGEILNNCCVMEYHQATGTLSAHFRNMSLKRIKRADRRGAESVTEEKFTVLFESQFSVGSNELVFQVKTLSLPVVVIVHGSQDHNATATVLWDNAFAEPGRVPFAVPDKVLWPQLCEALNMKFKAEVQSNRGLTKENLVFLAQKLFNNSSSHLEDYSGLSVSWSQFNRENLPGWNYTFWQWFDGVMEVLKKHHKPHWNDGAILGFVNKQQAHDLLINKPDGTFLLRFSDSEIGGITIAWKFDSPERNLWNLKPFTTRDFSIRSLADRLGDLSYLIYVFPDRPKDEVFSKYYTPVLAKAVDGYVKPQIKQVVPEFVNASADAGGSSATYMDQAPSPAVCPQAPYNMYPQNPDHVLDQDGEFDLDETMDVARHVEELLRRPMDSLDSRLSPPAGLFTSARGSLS
Experiment: Stat5a dimerization (FLAG-/MYC-tagged Stat5a co-immunoprecipitation) in PC-3 cells
Assay type: cell-based
Parameters: expressed in transfected cells; host or cells: PC-3 human prostate cancer cells
Settings: 2 hours pretreatment, then hPrl 10 nM 30 minutes
Experimental: (§1) FLAG-tagged Stat5a and MYC-tagged Stat5a were generated by standard molecular biology cloning techniques. Plasmid pCMV3-FLAG-Stat5a, pCMV3-MYC-Stat5a and pPr1R were co-transfected using FuGENE6 (Roche) into PC-3 cells (2 μg of each plasmid per 1×10^7 cells). The cells were starved for 20 hours, pretreated with test compound for 2 hours, then stimulated with hPrl (10 nM) in RPMI 1640 without serum for 30 minutes. The cell lysates were immunoprecipitated with 25 μl anti-FLAG M2 […] affinity gel (2 μg/ml, Sigma), anti-MYC pAb (1 μg/ml, Upstate) or normal rabbit serum (NRS). The primary antibodies were used in the immunoblottings at the following concentrations: anti-FLAG pAb (1:1000; Stratagene), anti-MYC mAb (1:1000; Sigma), anti-Stat5a/b mAb (1:250) (Transduction Laboratories) detected by horseradish peroxidase-conjugated secondary antibodies. The results are shown in FIG. 3A for Compound 1 and FIG. 3B for Compound 2.
Lanes 1, 2, 4, 6 and 8 represent cells stimulated with human prolactin (Prl) for 30 minutes which induces dimerization of Stat5. Two hours prior to Prl-stimulation, the cells had been treated with DMSO (lanes 1-4), the control compound C5 (lanes 7 and 8) and either Compound 1 (lanes 5 and 6 in FIG. 3A) or Compound 2 (lanes 5 and 6 in FIG. 3B). […] It should be noted the drug effect in this study was not due to cell apoptosis induction, as the treatment time was only 2 hours. Treatment of at least 48 hours is required for the compound to induce prostate cancer cell apoptosis.
as §1, with “and pPrlR” for “and pPr1R”, “hours, pre-treated” for “hours, pretreated”, “with NBPP” for “with test compound”, “2 h,” for “2 hours,”, “antibodies.” for “antibodies. The results are shown in FIG. 3A for Compound 1 and FIG. 3B for Compound 2.”
Lanes 1, 2, 4, 6 and 8 represent cells stimulated with human prolactin (Prl) for 30 minutes which induces dimerization of Stat5. Two hours prior to Prl-stimulation, the cells had been treated with DMSO (lanes 1-4), the control compound C5 (lanes 5 and 6) or NBPP (lanes 7 and 8) to test whether the Stat5a/b-inhibitor compound, NBPP, would be able to inhibit dimerization of StatS. […] It should be noted the drug effect in this study was not due to cell apoptosis induction, as the treatment time was only 2 hours. Treatment of at least 48 hours is required for the compound to induce prostate cancer cell apoptosis.
FLAG-tagged Stat5a and MYC-tagged Stat5a were generated by standard molecular biology cloning techniques.as follows. […] The primary antibodies were used in the immunoblottings at the following concentrations: anti-FLAG pAb (1:1000; Stratagene), anti-MYC mAb (1:1000; Sigma), anti-Stat5a/b mAb (1:250) (Transduction Laboratories) detected by horseradish peroxidase-conjugated secondary antibodies. […]

effect on Stat5a dimerization: did not inhibit dimerization of Stat5a
Compound: Nc1nc(SCc2cccnc2)[nH]c(=O)c1NC(=O)c1ccco1 [Compound C5, reference compound]
